Marks after values point to notes of the source that are not given here.
Assay: Total solids content of produced milk in sorbitol feeding trials
Assay type: in vivo, Holstein cows
Conditions: for Total Solids in Produced Milk: Pre-Partum Trial #1 (75/0/0 g/day in wk −3..−1/+1..+4/+5..+8)
Experimental: To determine the weight percent total solids, wet basis, in a sample, the actual weight of total solids is determined by analyzing the sample in accordance with Method #925.23 (33.2.09) of Official Methods of Analysis, Association of Official Analytical Chemists (AOAC) (16th Ed., 1995). The weight percent total solids, wet basis, is then calculated by dividing the actual weight of total solids by the actual weight of the sample. Each cow of each of the six different trials (Control Trial #1, Control Trial #2, Pre-Partum Trial #1, Pre-Partum Trial #2, Pre/Post Trial #1, and Pre/Post Trial #2) was milked three times daily and the weight of produced milk by each cow was recorded at each milking. The milk from each cow was sampled once per week (⅓ of the sample volume from each of the three milkings occurring on the weekly milk sampling day) and was analyzed for true protein, total fat, lactose, and total solids, as detailed in the property determination and characterization techniques presented above. Additionally, samples of blood were periodically obtained from each cow during the four trials (Control Trial 2, Pre-Partum Trial #2, Pre/Post Trial #1, and Pre/Post Trial #2) encompassed in Example Two and were analyzed for non-esterified fatty acid (NEFA) content as detailed in the property determination and characterization techniques presented above. No NEFA analysis was conducted on the cows employed in Control Trial #1 or Pre-Partum Trial #1 that are the subject of Example One. Example One includes Control Trial #1 and Pre-Partum Trial #1. Both primiparious cows and multiparious cows were included in Control Trial #1 and Pre-Partum Trial #1. Five primiparious cows and fifteen multiparious cows were included in Control Trial #1; likewise, five primiparious cows and fifteen multiparious cows were included in Pre-Partum Trial #1. All cows included in Control Trial #1 and Pre-Partum Trial #1 were Holsteins. Example Two includes Control Trial #2, Pre-Partum Trial #2, Pre/Post Trial #1, and Pre/Post Trial #2. Only multiparious, Holstein cows were included in Control Trial #2, […], Pre/Post Trial #1, and Pre/Post Trial #2. Eighteen multiparious cows were included in both Control Trial #2 and Pre-Partum Trial #2, while sixteen multiparious cows were included in Pre/Post Trial #1 and seventeen multiparious cows were included in Pre/Post Trial #2.

OC[C@@H](O)[C@@H](O)[C@H](O)[C@@H](O)CO [sorbitol]
Total Solids in Produced Milk (multiparious cows, weeks +1 through +8): 12.0^ab wt % | Total Solids in Produced Milk (primiparious cows, weeks +1 through +8): 13.0 wt % | increase in total solids concentration in the produced milk (Pre-Partum Trial #1 (75 g/day wk −3..−1 only) versus Control Trial #1, primiparious cows, weeks +1 through +8): 7.4% | Total Solids Content of Produced Milk (Pre-Partum Trial #2 (75/0/100 g/day in wk −3..−1/+1..+4/+5..+8), multiparious cows, week +1): 14.4^a weight % | Total Solids Content of Produced Milk (Pre-Partum Trial #2 (75/0/100 g/day in wk −3..−1/+1..+4/+5..+8), multiparious cows, week +2): 13.25 weight % | Total Solids Content of Produced Milk (Pre-Partum Trial #2 (75/0/100 g/day in wk −3..−1/+1..+4/+5..+8), multiparious cows, week +3): 12.54 weight % | Total Solids Content of Produced Milk (Pre-Partum Trial #2 (75/0/100 g/day in wk −3..−1/+1..+4/+5..+8), multiparious cows, week +4): 11.76^a weight % | Total Solids Content of Produced Milk (Pre-Partum Trial #2 (75/0/100 g/day in wk −3..−1/+1..+4/+5..+8), multiparious cows, week +5): 11.60^a weight % | Total Solids Content of Produced Milk (Pre-Partum Trial #2 (75/0/100 g/day in wk −3..−1/+1..+4/+5..+8), multiparious cows, week +6): 11.43^a weight % | Total Solids Content of Produced Milk (Pre-Partum Trial #2 (75/0/100 g/day in wk −3..−1/+1..+4/+5..+8), multiparious cows, week +7): 11.55 weight % | Total Solids Content of Produced Milk (Pre-Partum Trial #2 (75/0/100 g/day in wk −3..−1/+1..+4/+5..+8), multiparious cows, week +8): 11.45^ab weight % | Total Solids Content of Produced Milk (Pre-Partum Trial #2 (75/0/100 g/day in wk −3..−1/+1..+4/+5..+8), multiparious cows, weeks +1 through +4): 12.94^a weight % | Total Solids Content of Produced Milk (Pre-Partum Trial #2 (75/0/100 g/day in wk −3..−1/+1..+4/+5..+8), multiparious cows, weeks +1 through +8): 12.23^a weight % | Total Solids Content of Produced Milk (Pre-Partum Trial #2 (75/0/100 g/day in wk −3..−1/+1..+4/+5..+8), multiparious cows, weeks +5 through +8): 11.51^a weight % | Total Solids Content of Produced Milk (Pre/Post Trial #1 (150/125/100 g/day in wk −3..−1/+1..+4/+5..+8), multiparious cows, week +1): 15.3^ab weight % | Total Solids Content of Produced Milk (Pre/Post Trial #1 (150/125/100 g/day in wk −3..−1/+1..+4/+5..+8), multiparious cows, week +1, two-trial comparison with Control Trial #2 (Table 26)): 15.3 weight % | Total Solids Content of Produced Milk (Pre/Post Trial #1 (150/125/100 g/day in wk −3..−1/+1..+4/+5..+8), multiparious cows, week +2): 12.28 weight % | Total Solids Content of Produced Milk (Pre/Post Trial #1 (150/125/100 g/day in wk −3..−1/+1..+4/+5..+8), multiparious cows, week +2, two-trial comparison with Control Trial #2 (Table 26)): 13.28 weight % | Total Solids Content of Produced Milk (Pre/Post Trial #1 (150/125/100 g/day in wk −3..−1/+1..+4/+5..+8), multiparious cows, week +3): 12.84 weight % | Total Solids Content of Produced Milk (Pre/Post Trial #1 (150/125/100 g/day in wk −3..−1/+1..+4/+5..+8), multiparious cows, week +3, two-trial comparison with Control Trial #2 (Table 26)): 12.84 weight % | Total Solids Content of Produced Milk (Pre/Post Trial #1 (150/125/100 g/day in wk −3..−1/+1..+4/+5..+8), multiparious cows, week +4): 12.54^c weight % | Total Solids Content of Produced Milk (Pre/Post Trial #1 (150/125/100 g/day in wk −3..−1/+1..+4/+5..+8), multiparious cows, week +4, two-trial comparison with Control Trial #2 (Table 26)): 12.54 weight % | Total Solids Content of Produced Milk (Pre/Post Trial #1 (150/125/100 g/day in wk −3..−1/+1..+4/+5..+8), multiparious cows, week +5): 12.17^ab weight % | Total Solids Content of Produced Milk (Pre/Post Trial #1 (150/125/100 g/day in wk −3..−1/+1..+4/+5..+8), multiparious cows, week +5, two-trial comparison with Control Trial #2 (Table 26)): 12.17 weight % | Total Solids Content of Produced Milk (Pre/Post Trial #1 (150/125/100 g/day in wk −3..−1/+1..+4/+5..+8), multiparious cows, week +6): 12.08^b weight % | Total Solids Content of Produced Milk (Pre/Post Trial #1 (150/125/100 g/day in wk −3..−1/+1..+4/+5..+8), multiparious cows, week +6, two-trial comparison with Control Trial #2 (Table 26)): 12.08 weight % | Total Solids Content of Produced Milk (Pre/Post Trial #1 (150/125/100 g/day in wk −3..−1/+1..+4/+5..+8), multiparious cows, week +7): 11.71 weight % | Total Solids Content of Produced Milk (Pre/Post Trial #1 (150/125/100 g/day in wk −3..−1/+1..+4/+5..+8), multiparious cows, week +7, two-trial comparison with Control Trial #2 (Table 26)): 11.71 weight % | Total Solids Content of Produced Milk (Pre/Post Trial #1 (150/125/100 g/day in wk −3..−1/+1..+4/+5..+8), multiparious cows, week +8): 12.06^b weight % | Total Solids Content of Produced Milk (Pre/Post Trial #1 (150/125/100 g/day in wk −3..−1/+1..+4/+5..+8), multiparious cows, week +8, two-trial comparison with Control Trial #2 (Table 26)): 12.06 weight % | Total Solids Content of Produced Milk (Pre/Post Trial #1 (150/125/100 g/day in wk −3..−1/+1..+4/+5..+8), multiparious cows, weeks +1 through +4): 13.49^ab weight % | Total Solids Content of Produced Milk (Pre/Post Trial #1 (150/125/100 g/day in wk −3..−1/+1..+4/+5..+8), multiparious cows, weeks +1 through +4, two-trial comparison with Control Trial #2 (Table 26)): 13.49 weight % | Total Solids Content of Produced Milk (Pre/Post Trial #1 (150/125/100 g/day in wk −3..−1/+1..+4/+5..+8), multiparious cows, weeks +1 through +8): 12.76^b weight % | Total Solids Content of Produced Milk (Pre/Post Trial #1 (150/125/100 g/day in wk −3..−1/+1..+4/+5..+8), multiparious cows, weeks +1 through +8, two-trial comparison with Control Trial #2 (Table 26)): 12.76 weight % | Total Solids Content of Produced Milk (Pre/Post Trial #1 (150/125/100 g/day in wk −3..−1/+1..+4/+5..+8), multiparious cows, weeks +5 through +8): 12.02^b weight % | Total Solids Content of Produced Milk (Pre/Post Trial #1 (150/125/100 g/day in wk −3..−1/+1..+4/+5..+8), multiparious cows, weeks +5 through +8, two-trial comparison with Control Trial #2 (Table 26)): 12.02 weight % | increase in total solids concentration in milk (Pre/Post Trial #1 (150/125/100 g/day) versus Control Trial #2, multiparious cows, weeks +1 through +4 (Table 26)): more than 3.7% | greater total solids concentration in milk (Pre/Post Trial #1 (150/125/100 g/day) versus Control Trial #2, multiparious cows, weeks +1 through +8): 4.6% | increase in total solids concentration in milk (Pre/Post Trial #1 (150/125/100 g/day) versus Control Trial #2, multiparious cows, weeks +1 through +8 (Table 26)): ~4.6% | greater total solids concentration in milk (Pre/Post Trial #1 (150/125/100 g/day) versus Control Trial #2, multiparious cows, weeks +5 through +8): 5.2% | increase in total solids concentration in milk (Pre/Post Trial #1 (150/125/100 g/day) versus Control Trial #2, multiparious cows, weeks +5 through +8 (Table 26)): more than 5.2% | greater total solids concentration in milk (Pre/Post Trial #1 (150/125/100 g/day) versus Pre-Partum Trial #2 (75/0/100 g/day), multiparious cows, weeks +1 through +8): 4.3% | greater total solids concentration in milk (Pre/Post Trial #1 (150/125/100 g/day) versus Pre-Partum Trial #2 (75/0/100 g/day), multiparious cows, weeks +5 through +8): 4.4% | Total Solids Content of Produced Milk (Pre/Post Trial #2 (75/75/100 g/day in wk −3..−1/+1..+4/+5..+8), multiparious cows, week +1): 15.6^b weight % | Total Solids Content of Produced Milk (Pre/Post Trial #2 (75/75/100 g/day in wk −3..−1/+1..+4/+5..+8), multiparious cows, week +2): 13.61 weight % | Total Solids Content of Produced Milk (Pre/Post Trial #2 (75/75/100 g/day in wk −3..−1/+1..+4/+5..+8), multiparious cows, week +3): 12.92 weight % | Total Solids Content of Produced Milk (Pre/Post Trial #2 (75/75/100 g/day in wk −3..−1/+1..+4/+5..+8), multiparious cows, week +4): 12.43^bc weight % | Total Solids Content of Produced Milk (Pre/Post Trial #2 (75/75/100 g/day in wk −3..−1/+1..+4/+5..+8), multiparious cows, week +5): 12.38^b weight % | Total Solids Content of Produced Milk (Pre/Post Trial #2 (75/75/100 g/day in wk −3..−1/+1..+4/+5..+8), multiparious cows, week +6): 11.89^ab weight % | Total Solids Content of Produced Milk (Pre/Post Trial #2 (75/75/100 g/day in wk −3..−1/+1..+4/+5..+8), multiparious cows, week +7): 11.64 weight % | Total Solids Content of Produced Milk (Pre/Post Trial #2 (75/75/100 g/day in wk −3..−1/+1..+4/+5..+8), multiparious cows, week +8): 11.57^ab weight % | Total Solids Content of Produced Milk (Pre/Post Trial #2 (75/75/100 g/day in wk −3..−1/+1..+4/+5..+8), multiparious cows, weeks +1 through +4): 13.63^b weight % | Total Solids Content of Produced Milk (Pre/Post Trial #2 (75/75/100 g/day in wk −3..−1/+1..+4/+5..+8), multiparious cows, weeks +1 through +8): 12.73^b weight % | Total Solids Content of Produced Milk (Pre/Post Trial #2 (75/75/100 g/day in wk −3..−1/+1..+4/+5..+8), multiparious cows, weeks +5 through +8): 11.87^ab weight % | greater total solids concentration in milk (Pre/Post Trial #2 (75/75/100 g/day) versus Control Trial #2, multiparious cows, weeks +1 through +4): 4.8% | greater total solids concentration in milk (Pre/Post Trial #2 (75/75/100 g/day) versus Control Trial #2, multiparious cows, weeks +1 through +8): 4.3% | greater total solids concentration in milk (Pre/Post Trial #2 (75/75/100 g/day) versus Pre-Partum Trial #2 (75/0/100 g/day), multiparious cows, weeks +1 through +4): 5.3% | greater total solids concentration in milk (Pre/Post Trial #2 (75/75/100 g/day) versus Pre-Partum Trial #2 (75/0/100 g/day), multiparious cows, weeks +1 through +8): 4.1% | increase in total solids concentration in milk (average of means of Pre-Partum Trial #2, Pre/Post Trial #1 and Pre/Post Trial #2 versus Control Trial #2, multiparious cows, weeks +1 through +4): 2.7% | increase in total solids concentration in milk (average of means of Pre-Partum Trial #2, Pre/Post Trial #1 and Pre/Post Trial #2 versus Control Trial #2, multiparious cows, weeks +1 through +8): 1.1% | increase in total solids concentration in milk (average of means of Pre-Partum Trial #2, Pre/Post Trial #1 and Pre/Post Trial #2 versus Control Trial #2, multiparious cows, weeks +5 through +8): 3.3%
